Test results from ChEMBL document CHEMBL1125860 (J Med Chem, 1991).
One block for each compound: values may come before it. Active and inactive are the calls of the source. The calls are words filed in the database; no cut-off is given here.

Key:
[1] = molecular target: Aldo-keto reductase family 1 member B1 (Bos taurus) (UniProt P16116); experiment: In vitro % decrease of aldose reductase measured in isolated partially purified bovine lens preparations at 10e-7 M concentration
Rattus norvegicus [2] = experiment: In vivo inhibition of galactitol accumulation in diaphragm of rat at 5 mg/kg/day; type: functional
Rattus norvegicus [3] = organism: Rattus norvegicus; experiment: (§1) In vitro inhibition of sorbitol accumulation was measured in rat sciatic nerves incubated in the presence of 50 mM glucose at 10e-5 M concentration; type: functional, Sciatic nerve
Rattus norvegicus [4] = organism: Rattus norvegicus; experiment: Inhibition of galactitol accumulation in sciatic nerves of rat incubated in presence of 50 mM glucose.; type: functional, organism-based; conditions: Sciatic nerve
Rattus norvegicus [5] = organism: Rattus norvegicus; experiment: Inhibition of aldose reductase activity was measured by measuring […] in the RBC of galactose fed rat.; type: functional
Rattus norvegicus [6] = experiment: In vivo inhibition of galactitol accumulation in sciatic nerves of rat at 5 mg/kg/day; type: functional; conditions: Sciatic nerve
Rattus norvegicus [7] = organism: Rattus norvegicus; experiment: Inhibition of galactitol accumulation in rat RBC incubated in presence of 50 mM glucose; type: functional, organism-based
Rattus norvegicus [8] = organism: Rattus norvegicus; experiment: Inhibition of galactitol accumulation in rat lens incubated in presence of 50 mM glucose; type: functional, organism-based; conditions: Lens of camera-type eye
Rattus norvegicus [9] = organism: Rattus norvegicus; experiment: Inhibition of aldose reductase activity was measured by measuring sorbitor accumulation in the sciatic nerves of STZ diabetic rat.; type: functional; conditions: Sciatic nerve
Rattus norvegicus [10] = organism: Rattus norvegicus; experiment: Inhibition of aldose reductase activity was measured by measuring […] in the sciatic nerves of galactose fed rat.; type: functional; conditions: Sciatic nerve
Rattus norvegicus [11] = organism: Rattus norvegicus; experiment: (§2) In vitro inhibition of sorbitol accumulation was measured in rat sciatic nerves incubated in the presence of 50 mM glucose at 10e-6 M concentration; type: functional, Sciatic nerve
[12] = molecular target: T1, Aldo-keto reductase family 1 member B1 (Bos taurus, UniProt P16116); experiment: Inhibition of aldose reductase activity was measured on partially purified bovine lens preparations incubated in presence of 50 mM glucose.
Rattus norvegicus [13] = experiment: In vivo inhibition of galactitol accumulation in sciatic nerves of rat at 10 mg/kg/day; type: functional; conditions: Sciatic nerve
Rattus norvegicus [14] = experiment: In vivo inhibition of galactitol accumulation in diaphragm of rat at 10 mg/kg/day; type: functional
Rattus norvegicus [15] = experiment: In vivo inhibition of galactitol accumulation in diaphragm of rat at 53 mg/kg/day; Not significant; type: functional, organism-based
Rattus norvegicus [16] = experiment: In vivo inhibition of galactitol accumulation in sciatic nerves of rat at 53 mg/kg/day; Not significant; type: functional, organism-based; conditions: Sciatic nerve
Rattus norvegicus [17] = experiment: In vivo inhibition of galactitol accumulation in diaphragm of rat at 20 mg/kg/day; type: functional
Rattus norvegicus [18] = experiment: In vivo inhibition of galactitol accumulation in sciatic nerves of rat at 20 mg/kg/day; type: functional; conditions: Sciatic nerve
Rattus norvegicus [19] = experiment: In vivo inhibition of galactitol accumulation in sciatic nerves of rat at 16 mg/kg/day; type: functional; conditions: Sciatic nerve
Rattus norvegicus [20] = experiment: In vivo inhibition of galactitol accumulation in sciatic nerves of rat at 114 mg/kg/day; Not significant; type: functional, organism-based; conditions: Sciatic nerve
Rattus norvegicus [21] = experiment: In vivo inhibition of galactitol accumulation in diaphragm of rat at 114 mg/kg/day; Not significant; type: functional, organism-based
Rattus norvegicus [22] = organism: Rattus norvegicus; experiment: inhibition of aldose reductase activity was measured by measuring sorbitor accumulation in the sciatic nerves of STZ diabetic rat.; type: functional; conditions: Sciatic nerve
Rattus norvegicus [23] = organism: Rattus norvegicus; experiment: inhibition of aldose reductase activity was measured by measuring […] in the sciatic nerves of galactose fed rat.; type: functional; conditions: Sciatic nerve
Rattus norvegicus [24] = experiment: In vivo inhibition of galactitol accumulation in diaphragm of rat at 6 mg/kg/day; type: functional
Rattus norvegicus [25] = organism: Rattus norvegicus; experiment: inhibition of aldose reductase activity was measured by measuring […] in the RBC of galactose fed rat.; type: functional
Rattus norvegicus [26] = experiment: In vivo inhibition of galactitol accumulation in sciatic nerves of rat at 6 mg/kg/day; type: functional; conditions: Sciatic nerve
Rattus norvegicus [27] = experiment: In vivo inhibition of galactitol accumulation in sciatic nerves of rat at 105 mg/kg/day; Not significant; type: functional, organism-based; conditions: Sciatic nerve
Rattus norvegicus [28] = experiment: In vivo inhibition of galactitol accumulation in diaphragm of rat at 105 mg/kg/day; type: functional
Rattus norvegicus [29] = experiment: In vivo inhibition of galactitol accumulation in sciatic nerves of rat at 65 mg/kg/day; Not significant; type: functional, organism-based; conditions: Sciatic nerve
Rattus norvegicus [30] = experiment: In vivo inhibition of galactitol accumulation in diaphragm of rat at 65 mg/kg/day; type: functional
Rattus norvegicus [31] = experiment: In vivo inhibition of galactitol accumulation in sciatic nerves of rat at 28 mg/kg/day; type: functional; conditions: Sciatic nerve
Rattus norvegicus [32] = experiment: In vivo inhibition of galactitol accumulation in diaphragm of rat at 28 mg/kg/day; type: functional
Rattus norvegicus [33] = experiment: In vivo inhibition of galactitol accumulation in diaphragm of rat at 18 mg/kg/day; type: functional
Rattus norvegicus [34] = experiment: In vivo inhibition of galactitol accumulation in sciatic nerves of rat at 18 mg/kg; type: functional; conditions: Sciatic nerve
Rattus norvegicus [35] = experiment: In vivo inhibition of galactitol accumulation in diaphragm of rat at 25 mg/kg/day; type: functional
Rattus norvegicus [36] = experiment: In vivo inhibition of galactitol accumulation in sciatic nerves of rat at 25 mg/kg/day; type: functional; conditions: Sciatic nerve
Rattus norvegicus [37] = organism: Rattus norvegicus; experiment: as §1; type: functional; conditions: Sciatic nerve
[38] = molecular target: T1, Aldo-keto reductase family 1 member B1; experiment: In vitro Inhibition of aldose reductase was measured in isolated partially purified bovine lens preparations at 10e-7 M concentration
Rattus norvegicus [39] = organism: Rattus norvegicus; experiment: % inhibition of aldose reductase was measured in rat serbital sciatic nerves incubated in the presence of 50 mM glucose at 10e-6 M concentration; type: functional, Sciatic nerve
Rattus norvegicus [40] = organism: Rattus norvegicus; experiment: as §2; type: functional; conditions: Sciatic nerve
Rattus norvegicus [41] = experiment: Effective dose of aldose reductase was evaluated by measuring galactitol accumulation in sciatic nerves of rat at 5 mg/kg/day; type: functional; conditions: Sciatic nerve

- inhibition [1]: 86%
- IC50 (Rattus norvegicus [4]): 2800 nM
- IC50 (Rattus norvegicus [7]): 19 nM
- IC50 (Rattus norvegicus [8]): 340 nM
- IC50 [12]: 25 nM
SMILES: COC(=O)N(CC(=O)O)C(=O)c1c(F)ccc2c(C(F)(F)F)c(OC)ccc12
- inhibition in vivo at 5 mg/kg/day (Rattus norvegicus [2]): 52%
- Inhibition (Rattus norvegicus [3]): 61%
- ED50 (Rattus norvegicus [5]): 3.5 mg/kg
- inhibition in vivo at 5 mg/kg/day (Rattus norvegicus [6]): 50%
- ED50 (Rattus norvegicus [9]): 4 mg/kg
- ED50 (Rattus norvegicus [10]): 4.8 mg/kg
- Inhibition (Rattus norvegicus [11]): 36%
- inhibition in vivo at 10 mg/kg/day (Rattus norvegicus [13]): 61%
- inhibition in vivo at 10 mg/kg/day (Rattus norvegicus [14]): 62%

- inhibition [1]: 62%
SMILES: COc1ccc2c(C(F)(F)F)c(OC)ccc2c1C(=O)N(C)CC(=O)O
- inhibition (Rattus norvegicus [15]): inactive
- Inhibition (Rattus norvegicus [3]): 48%
- Inhibition (Rattus norvegicus [11]): 33%
- inhibition (Rattus norvegicus [16]): inactive

- inhibition [1]: 80%
SMILES: COc1ccc2c(C(=O)N(C)CC(=O)O)c(F)ccc2c1C(F)(F)F
- inhibition in vivo at 20 mg/kg/day (Rattus norvegicus [17]): 72%
- inhibition in vivo at 20 mg/kg/day (Rattus norvegicus [18]): 62%
- Inhibition (Rattus norvegicus [3]): 66%
- Inhibition (Rattus norvegicus [11]): 41%
- inhibition in vivo at 16 mg/kg/day (Rattus norvegicus [19]): 45%

- inhibition [1]: 63%
SMILES: COc1ccc2c(C(=O)N(C)CC(=O)O)cc(C)cc2c1Br
- inhibition (Rattus norvegicus [20]): inactive
- Inhibition (Rattus norvegicus [3]): 52%
- inhibition (Rattus norvegicus [21]): inactive
- Inhibition (Rattus norvegicus [11]): 20%

- IC50 (Rattus norvegicus [4]): 540 nM
- IC50 (Rattus norvegicus [7]): 15 nM
- IC50 (Rattus norvegicus [8]): 1000 nM
SMILES: COc1ccc2c(C(=S)N(C)CC(=O)O)cccc2c1C(F)(F)F [TOLRESTAT]
- Inhibition (Rattus norvegicus [3]): 82%
- ED50 (Rattus norvegicus [22]): 4.8 mg/kg
- ED50 (Rattus norvegicus [23]): 6.4 mg/kg
- Inhibition (Rattus norvegicus [11]): 61%
- inhibition in vivo at 6 mg/kg/day (Rattus norvegicus [24]): 80%
- ED50 (Rattus norvegicus [25]): < 2 mg/kg
- inhibition in vivo at 6 mg/kg/day (Rattus norvegicus [26]): 53%

- inhibition [1]: 8%
SMILES: COc1c(C)cc2c(C(=S)N(C)CC(=O)O)cccc2c1Br
- inhibition (Rattus norvegicus [27]): inactive
- inhibition in vivo at 105 mg/kg/day (Rattus norvegicus [28]): 34%
- inhibition in vivo at 10 mg/kg/day (Rattus norvegicus [13]): 54%
- inhibition in vivo at 10 mg/kg/day (Rattus norvegicus [14]): 87%

- inhibition [1]: 73%
SMILES: COc1ccc2c(C(=O)N(C)CC(=O)O)c(OCc3ccccc3)ccc2c1C(F)(F)F
- inhibition (Rattus norvegicus [29]): inactive
- inhibition in vivo at 65 mg/kg/day (Rattus norvegicus [30]): 23%

- inhibition [1]: 87%
SMILES: CCOc1ccc2c(C(F)(F)F)c(OC)ccc2c1C(=S)N(C)CC(=O)O
- inhibition in vivo at 28 mg/kg/day (Rattus norvegicus [31]): 46%
- inhibition in vivo at 28 mg/kg/day (Rattus norvegicus [32]): 85%

- inhibition [1]: 72%
SMILES: COc1ccc2c(C(=S)N(C)CC(=O)O)cccc2c1Br
- inhibition in vivo at 18 mg/kg/day (Rattus norvegicus [33]): 88%
- inhibition in vivo at 18 mg/kg (Rattus norvegicus [34]): 39%
- inhibition in vivo at 25 mg/kg/day (Rattus norvegicus [35]): 90%
- inhibition in vivo at 25 mg/kg/day (Rattus norvegicus [36]): 64%

- IC50 (Rattus norvegicus [37]): 1400 nM
- IC50 [38]: 37 nM
- IC50 (Rattus norvegicus [40]): 37 nM
SMILES: O=C(O)Cc1nn(Cc2ccc(Br)cc2F)c(=O)c2ccccc12 [PONALRESTAT]
- inhibition in vivo at 5 mg/kg/day (Rattus norvegicus [2]): 63%
- Inhibition (Rattus norvegicus [3]): 100%
- inhibition in vivo at 5 mg/kg/day (Rattus norvegicus [6]): 61%
- Inhibition (Rattus norvegicus [39]): 35%
- ED50 (Rattus norvegicus [41]): 4 mg/kg
